Data on 10 substances can be found in US8304391B2 (Affymax, Inc., priority 2003, dated 2012).

Bridges are numbered along the chain shown (N, C = ends). Roman numbers before positions name the chains, in order. Where no end group is shown, it is not given here. [ ]: non-standard residue; d: D form. The star is where a group is joined. ξ: configuration not given here. 1Nal = N[C@@H](Cc1cccc2ccccc12)C(=O)O; NH(CH2CH2O)2CH2CH2NH2 = NCCOCCOCCN*; hSer = N[C@@H](CCO)C(=O)O; ξK = NCCCCC(N)C(=O)O; Ahx = NCCCCCC(=O)O; Sar = CNCC(=O)O

The target in test [1] is chimeric receptor comprising the extra-cellular portion of the human EPO receptor to the intra-cellular portion of the human GCSF receptor. As to the kind of experiment: Reporter assay (Baf3/EpoR/GCSFR fos/lux luciferase). It is filed as cell-based. Conditions: peptide monomers; Baf3/EpoR/GCSFR fos/lux cells, 4 h. The protocol:
One assay is based upon a murine pre-B-cell line expressing human EPO-R and further transfected with a fos promoter-driven luciferase reporter gene construct. Upon exposure to EPO or another EPO-R agonist, such cells respond by synthesizing luciferase. Luciferase causes the emission of light upon addition of its substrate luciferin. Thus, the level of EPO-R activation in such cells may be quantitated via measurement of luciferase activity. The activity of a test peptide is measured by adding serial dilutions of the test peptide to the cells, which are then incubated for 4 hours. After incubation, luciferin substrate is added to the cells, and light emission is measured. The concentration of test peptide that results in a half-maximal emission of light is recorded as the EC50.
This assay is based upon a on a murine pre-B-cell line derived reporter cell, Baf3/EpoR/GCSFR fos/lux. […] Thus, the level of EPO-R activation in such cells may be quantitated via measurement of luciferase activity.
The Baf3/EpoR/GCSFR fos/lux cells are cultured in DMEM/F12 medium (Gibco) supplemented with 10% fetal bovine serum (FBS; Hyclone), 10% WEHI-3 supernatant (the supernatant from a culture of WEHI-3 cells, ATCC # TIB-68), and penicillin/streptomycin. […] Following a 5-minute incubation, light emission is measured on a Packard Topcount Luminometer (Packard Instrument Co., Downers Grove, Ill.). […]
(In a reporter assay the amount or activity of a reporter protein is the signal.)

Test [2] relates to human, bone marrow derived CD34+ cells. The test is classed as cell-based. The source says: EPO-R signaling stimulates the differentiation of bone marrow stem cells into proliferating red blood cell precursors. This assay measures the ability of test peptides to stimulate the proliferation and differentiation of red blood cell precursors from primary human bone marrow pluripotent stem cells.
For this assay, serial dilutions of test peptide are made in IMDM medium (Gibco) supplemented with 10% FBS (Hyclone). […] The methylcellulose and peptide mixture is then vortexed thoroughly. Aliquots (100,000 cells/mL) of human, bone marrow derived CD34+ cells (Poietics/Cambrex) are thawed. The thawed cells are gently added to 0.1 mL of 1 mg/ml DNAse (Stem Cells) in a 50 mL tube. Next, 40-50 mL IMDM medium is added gently to cells: the medium is added drop by drop along the side of the 50 mL tube for the first 10 mL, and then the remaining volume of medium is slowly dispensed along the side of the tube. The cells are then spun at 900 rpm for 20 min, and the media removed carefully by gentle aspiration. The cells are resuspended in 1 ml of IMDM medium and the cell density per mL is counted on hemacytometer slide (10 μL aliquot of cell suspension on slide, and cell density is the average count×10,000 cells/mil). The cells are then diluted in IMDM medium to a cell density of 15,000 cells/mL. A 100 μL of diluted cells is then added to each 1.5 mL methyl cellulose plus peptide sample (final cell concentration in assay media is 1000 cells/mL), and the mixture is vortexed. Allow the bubbles in the mixture to disappear, and then aspirate 1 mL using blunt-end needle. Add 0.25 mL aspirated mixture from each sample into each of 4 wells of a 24-well plate (Falcon brand). Incubate the plated mixtures at 37° C. under 5% CO2 in a humid incubator for 14 days. Score for the presence of erythroid colonies using a phase microscope (5×-10× objective, final magnification of 100×).

In the next test the target is T1, human EPO-R (Homo sapiens, UniProt P19235).
T1 construct: expressed in transfected cells; host or cells: murine pre-B-cell line Baf3 (BaF3/Gal4/Elk/EPOR)
T1 sequence (P19235 25-508): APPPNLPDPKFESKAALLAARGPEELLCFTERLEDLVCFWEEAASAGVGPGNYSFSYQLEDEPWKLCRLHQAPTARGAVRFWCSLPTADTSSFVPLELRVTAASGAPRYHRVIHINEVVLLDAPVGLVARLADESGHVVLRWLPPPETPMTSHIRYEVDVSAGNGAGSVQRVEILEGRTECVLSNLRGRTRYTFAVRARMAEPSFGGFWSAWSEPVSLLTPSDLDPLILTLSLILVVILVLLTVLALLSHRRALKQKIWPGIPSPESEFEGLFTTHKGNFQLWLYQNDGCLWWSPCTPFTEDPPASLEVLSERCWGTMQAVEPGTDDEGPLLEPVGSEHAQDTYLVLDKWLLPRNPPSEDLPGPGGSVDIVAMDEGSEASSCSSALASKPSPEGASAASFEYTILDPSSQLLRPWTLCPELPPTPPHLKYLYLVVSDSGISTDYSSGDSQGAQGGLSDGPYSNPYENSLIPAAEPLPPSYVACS
As to the kind of experiment: Proliferation assay (BaF3/Gal4/Elk/EPOR cells, MTT). The test is classed as cell-based. As to conditions: 48 h. The procedure: This assay is based upon a murine pre-B-cell line, Baf3, transfected to express human EPO-R. Proliferation of the resulting cell line, BaF3/Gal4/Elk/EPOR, is dependent on EPO-R activation. The degree of cell proliferation is quantitated using MTT, where the signal in the MTT assay is proportional to the number of viable cells.
The BaF3/Ga14/Elk/EPOR cells are cultured in spinner flasks in DMEM/F12 medium (Gibco) supplemented with 10% FBS (Hyclone) and 2% WEHI-3 supernatant (ATCC # TIB-68). Cultured cells are starved overnight, in a spinner flask at a cell density of 1×10^6 cells/ml, in DMEM/F12 medium supplemented with 10% FBS and 0.1% WEHI-3 supernatant. The starved cells are then washed twice with Dulbecco's PBS (Gibco), and resuspended to a density of 1×10^6 cells/ml in DMEM/F12 supplemented with 10% FBS (no WEHI-3 supernatant). 50 μL , aliquots (˜50,000 cells) of the cell suspension are then plated, in triplicate, in 96 well assay plates. […] The plated cells are then incubated for 48 h at 37° C. Next, 10 μL of MTT (Roche Diagnostics) is added to each culture dish well, and then allowed to incubate for 4 h. The reaction is then stopped by adding 10% SDS+0.01N HCl. The plates are then incubated overnight at 37° C. Absorbance of each well at a wavelength of 595 nm is then measured by spectrophotometry. Plots of the absorbance readings versus test peptide concentration are constructed and the EC50 calculated using Graph Pad software. The concentration of test peptide that results in a half-maximal absorbance is recorded as the EC50 [See Table 3: Proliferation EC50].

A further test deals with T2, recombinant EPO-R (Homo sapiens, UniProt P19235).
T2 construct: made in house; host or cells: Chinese Hamster Ovary cells
T2 sequence (P19235 25-250 limits assumed): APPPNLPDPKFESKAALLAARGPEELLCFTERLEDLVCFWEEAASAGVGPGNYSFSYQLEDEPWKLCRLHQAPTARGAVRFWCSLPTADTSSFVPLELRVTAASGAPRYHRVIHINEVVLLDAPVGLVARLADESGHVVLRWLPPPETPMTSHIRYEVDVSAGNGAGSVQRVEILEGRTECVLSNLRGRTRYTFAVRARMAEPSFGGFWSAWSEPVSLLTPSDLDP
Nature of the test: Competitive binding assay (AQ, bead proximity, tracer AF33068). As to conditions: tracer AF33068 30 nM, 18 hours. The source says:
Competitive binding calculations are made using an assay in which a light signal is generated as a function of the proximity of two beads: a streptavidin donor bead bearing a biotinylated EPO-R-binding peptide tracer and an acceptor bead to which is bound EPO-R. Light is generated by non-radiative energy transfer, during which a singlet oxygen is released from a first bead upon illumination, and contact with the released singlet oxygen causes the second bead to emit light. These bead sets are commercially available (Packard). Bead proximity is generated by the binding of the EPO-R-binding peptide tracer to the EPO-R. A test peptide that competes with the EPO-R-binding peptide tracer for binding to EPO-R will prevent this binding, causing a decrease in light emission.
In more detail the method is as follows: Add 4 μL of serial dilutions of the test EPO-R agonist peptide, or positive or negative controls, to wells of a 384 well plate. Thereafter, add 2 μL/well of receptor/bead cocktail. […]
Centrifuge 1 min to mix. […] After 18 hours read light emission using an AlphaQuest reader (Packard). […]

The EC50 is the midpoint of the concentration-response curve. Lower therefore signals higher potency in that assay. On to “GGLYACHMGPMT(1-nal)VCQPLRG (GGLYACHMGPMT[1Nal]VCQPLRG; cysteine pairing not given here) [AF31748]”, for which, in test [1], a half-maximal effect (EC50) was put at 40 nM. In test [1], GGLYACHMGPMTVCQPLRG [AF31552] gave an EC50 of 100 nM. What is called EC90 is the concentration at which the effect reaches the 90% level. Low readings indicate greater potency, high ones weaker potency. Regarding “I: Ac-GGLYACHMGPITWVCQPLRGK[Ahx][Ahx] / II: Ac-GGLYACHMGPITWVCQPLRG (disulfide I:6-I:15, II:6-II:15; amide I:21-II:C; N-terminus assumed) [AF34753]”, in test [2], the 90% effect concentration (EC90) worked out at 1.2 nM. As to “I: Ac-GGLYACHMGPIT[1Nal]VCQPLR[Sar][ξK]-{NH(CH2CH2O)2CH2CH2NH2} / II: Ac-GGLYACHMGPIT[1Nal]VCQPLR[Sar] (disulfide I:6-I:15, II:6-II:15; amide I:21-II:C) [AF35525]”, the 90% effect concentration (EC90) in test [2] was 3 nM. The substance further returned an EC50 at human EPO-R of 0.057 nM. In test [2], “I: Ac-GGLYACH[hSer](Me)GPIT[1Nal]VCQPLRGK[Ahx][Ahx] / II: Ac-GGLYACH[hSer](Me)GPIT[1Nal]VCQPLRG (disulfide I:6-I:15, II:6-II:15; amide I:21-II:C; N-terminus assumed) [AF35179]” registered an EC90 of 3.7 nM. Substance “I: Ac-GGLYACH[hSer](Me)GPIT[1Nal]VCQPLR[Sar][ξK]-{NH(CH2CH2O)2CH2CH2NH2} / II: Ac-GGLYACH[hSer](Me)GPIT[1Nal]VCQPLR[Sar] (disulfide I:6-I:15, II:6-II:15; amide I:21-II:C) [AF35149]” yielded an EC90 in test [2] of 2 nM. Further, on human EPO-R, the EC50 amounted to 0.057 nM. Usually IC50 stands for the concentration at which inhibition is half-maximal. Turning to “I: GGLYACHMGPITWVCQPLRGK-NH2 / II: GGLYACHMGPITWVCQPLRG (disulfide I:6-I:15, II:6-II:15; amide I:21-II:C) [AF32579]”, the half-maximal inhibitory concentration (IC50) on recombinant EPO-R turned out to be 1.7 nM. This substance came in with a 90% effect concentration (EC90) in test [2] of 3 nM. The substance further showed an EC50 at human EPO-R of 0.142 nM. “I: GGLYACHMGPIT[1Nal]VCQPLR[Sar]K-NH2 / II: GGLYACHMGPIT[1Nal]VCQPLR[Sar] (disulfide I:6-I:15, II:6-II:15; amide I:21-II:C) [AF34994]” gave a 90% effect concentration (EC90) in test [2] of 3.7 nM. The EC50 on human EPO-R came to 0.17 nM. On the same counts, the results for “I: GGLYACH[hSer](Me)GPITWVCQPLR[Sar]K-NH2 / II: GGLYACH[hSer](Me)GPITWVCQPLR[Sar] (disulfide I:6-I:15, II:6-II:15; amide I:21-II:C) [AF35090]” are 3.7 nM and 0.19 nM. In the case of “I: GGLYACH[hSer](Me)GPIT[1Nal]VCQPLRGK-NH2 / II: GGLYACH[hSer](Me)GPIT[1Nal]VCQPLRG (disulfide I:6-I:15, II:6-II:15; amide I:21-II:C) [AF32881]”, it took 11 nM to reach the 90% level in test [2] (EC90).
